Consider one compound from US20240299379A1, “COMPOSITIONS OF CLOFAZIMINE AND AMIKACIN FOR PULMONARY ADMINISTRATION IN THE TREATMENT OF RESPIRATORY DISEASES” (BOARD OF REGENTS, THE UNIVERSITY OF TEXAS SYSTEM, priority 2021, published 2024).

Molecules are shown by their SMILES. Bounds are passed on as bounds.

The conditions of data set [1]: in vivo, po; cited from earlier work.
Data set [2] can be described thus: Geometric particle size distribution by laser diffraction (Sympatec HELOS, RODOS dry dispersion). Particulars: micronized with Model 00 Jet-O-Mizer Air Jet Mill. The class given is physicochemical. How it is done: PSD was calculated using Fraunhofer theory using the Sympatec laser diffractor. […] Measurements were taken every 5 msec […] following powder dispersion. Measurements that were between 5-25% optical density were averaged to determine particle size distribution. Data was analyzed using HELOS software version 5.6.0.0 with an HRLD model to convert the scattering pattern to a particle size distribution.

For data set [3] the following is noted: cited from earlier work.
For data set [4] the following is noted: in vivo, po; cited from earlier work. The source holds these as a separate data set.
Data set [5] can be described thus: Solubility of the drug substances in solvents. The class given is physicochemical. Particulars: ethanol and isopropanol, organic solvent or mixture.

As usually defined, the solubility is how much of the substance goes into solution per volume. Take `CC(C)N=c1cc2n(-c3ccc(Cl)cc3)c3ccccc3nc-2cc1Nc1ccc(Cl)cc1` [clofazimine, N,5-bis(4-chlorophenyl)-3-(1-methylethylimino)-5H-phenazin-2-amine]: the “Duration of administration necessary to reach steady-state concentrations” value in data set [1] was “At least 30 days”. Further, in data set [2], the X50 particle diameter came out at 2.39 μm and the X90 particle diameter was 5.29 μm. Also, in data set [3] (Merck Index), the “Solubility in DMF and benzene” value was “soluble”; the “Solubility in acetone and ethyl acetate” value was “sparingly soluble”; the Solubility in chloroform was 15 parts; the Solubility in ethanol was 700 parts. In addition, the Solubility in ether in data set [3] (Merck Index) is listed as 1000 parts. In addition, in data set [3] (Sabnis et al., 2015), the “Solution concentration that can be formed in methanol” value is listed as 0.1%. Besides, in data set [3], the Solubility in water result is given as “practically insoluble”. For the same compound, the “Patient population reporting at least one adverse drug effect” value in data set [4] is reported as 47.5%. Also, the solubility in data set [5] is at most 800 µg/mL.
